Results on 23 molecules are retold here after patent US12017975B2, “Myc-Max inhibitor compound therapeutics for cancer treatment, methods and uses associated therewith” (THE UNIVERSITY OF BRITISH COLUMBIA, priority 2018, dated 2024).

SMILES strings stand for the structures. Like-named read-outs stand apart in the source and are kept apart here.

Test [1] concerns Myc-Max/UBE2C downstream pathway. In words: UBE2C promoter luciferase reporter assay in 22rv1 cells. It counts as cell-based. Conditions: Homo sapiens, 25 μM. As for the experimental part: (§1) Cell transfection was performed using TransIT-2020™ transfection reagents according to the manufacturer's instructions (Mirus™). LNCaP cells were plated at 10000 cells per well and treated for 1 day with the indicated concentration of compound. Myc reporter activity was measured using the Cignal Myc Reporter Assay Kit™ from Qiagen™ (#336841) according to the manufacturer's instructions. For the UBE2C reporter assay, 22rv1 cells were plated at 10000 cells per well in 96-well plates in RPMI media supplemented with 5% charcoal-stripped serum (CSS) and treated for 1 day with 1 μM, 10 μM and 25 μM of compound.
Myc inhibition was recently reported to reduce levels of the constitutively active androgen receptor splice variant AR-V7 in 22rv1 cells. […] The dose-dependent reduction of luciferase levels by the identified hits indicates a Myc-related reduction of AR-V7 level in the cells (see TABLE 1). […] The AR-V7 reduction with the hits was confirmed by Western blot (FIG. 2B).

Test [2] concerns LNCaP cells. In words: LNCaP cell viability (PrestoBlue). The following applies: Homo sapiens, 96 hours, 0-25 μM, read-out: IC50 LNCaP cell proliferation / viability. It counts as cell-based. As for the experimental part: (§2) LNCaP were plated at 5000 cells per well in RPMI 1640 containing 5% CSS in a 96-well plate, treated with test compounds (0-25 μM) for 96 hours. Cell density was measured using the PrestoBlue™ assay according to the manufacturer's protocol. The percentage of cell survival was normalized to the cell density of control wells treated by vehicle. Viability of Myc-negative […] cells was done similarly but in DMEM supplemented with 5% CSS.
(§3) The effect of hit compounds on Myc-driven cell proliferation was evaluated by measuring the cell viability of LNCaP cells after treatment with increasing concentrations of compounds.

The test system of test [3] is Myc-Max transcriptional activity. Kind of test: Cignal c-Myc luciferase reporter assay in LNCaP cells. It counts as cell-based. The following applies: Homo sapiens. As for the experimental part:
as §1
Compounds were subjected to experimental evaluation using the commercially available transcriptional assay Cignal c-Myc luciferase reporter assay in LNCaP cells. […] A transiently transfected Myc-driven luciferase reporter allowed the monitoring of Myc-regulated signal in LNCaP upon treatment with the in silico identified compounds.
(In general: Reporter assays use an easily measured gene product as a stand-in for the process of interest.)

In another test the test system is HO15.19 cells. Kind of test: Cell viability of Myc negative (c-Myc knockout) HO15.19 cells. It counts as cell-based. The following applies: Rattus norvegicus, HO15.19; read-out: % inhibition Myc K.O cells (12 uM). As for the experimental part:
as §2, §3

Test [4] deals with LNCaP cells. In words: PARP cleavage (apoptosis) by Western blot in LNCaP cells. It counts as cell-based. The following applies: TABLE 2, LNCaP cells. The method, then: After 48 hours of treatment with Myc compounds, LNCaP cells were lysed, and protein sample preparation followed by Western blotting were performed. Blots were incubated with primary antibodies against c-Myc, PARP (Sigma™ 084M4766V), PARP cleaved-Asp214 (Sigma™ SAB4500487) and β-Actin (Sigma™ A2066) overnight at 4° C., followed by appropriate peroxidase-conjugated secondary antibodies. β-actin served as an internal control. Visualization of the immunocomplexes was done by an enhanced chemiluminescence detection system (Millipore™) followed by exposure to X-ray films.
Apoptosis. Myc inhibition induces cell death by cell cycle arrest and apoptosis. Cleavage of PARP-1 by caspases is considered a hallmark of apoptosis and so we measured the ability of compounds to induce PARP cleavage after treatment.

The next test deals with T1, Myc-Max complex (Homo sapiens, UniProt P01106+P61244).
T1 construct: GST tagged Myc (residues 368-454); Histidine tagged Max (residues 23-102); made in house; host or cells: E. coli BL21-DE3
T1 sequence (P01106 368-454): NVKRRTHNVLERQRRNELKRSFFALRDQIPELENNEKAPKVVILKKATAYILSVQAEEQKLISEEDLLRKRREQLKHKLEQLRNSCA
T1 sequence (P61244 23-102): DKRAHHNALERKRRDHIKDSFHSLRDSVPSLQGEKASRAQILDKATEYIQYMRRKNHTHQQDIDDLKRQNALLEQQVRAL
Kind of test: Biolayer interferometry of Myc-Max binding to biotinylated E-box DNA. Conditions: TABLE 2. The method, then: Histidine tagged Max (residues 23-102) and GST tagged Myc (residues 368-454) were overexpressed in E. coli BL21-DE3 cells. Cells were co-lyzed in lysis buffer (20 mM Tris pH 8, 500 mM NaCl, 5% glycerol, 10 mM imidazole, 8 mM BME, 2.1 mM PMSF). After sonication and centrifugation, the complex was first purified by using a Ni-NTA affinity resin. After overnight dialysis to remove the imidazole, the protein sample was applied to a size exclusion chromatography equilibrated with (20 mM Tris pH 8, 150 mM NaCl, 5% glycerol, 0.2 mM TCEP). Fractions containing equal amount of Myc and Max on SDS PAGE were collected and used for the binding assay. The presence of both proteins was validated by Western blot using a specific antibody of each protein (Max (h2) Sc-8011 and c-Myc (9E10) Sc-40, Santa Cruz Biotechnology™)
The direct interaction between biotinylated E-box oligo ([…]) immobilized on a streptavidin biosensor and a purified Myc-Max complex (0.05 mg/ml) was quantified by BLI using OctetRED (ForteBio™). The DNA was first bound to the super-streptavidin sensors over 1000 sec at 25° C. The sensors were next moved into wells containing the reaction buffer (20 mM Tris pH 8, 150 mM NaCl, 5% glycerol, 0.2 mM TCEP, 5% dimethylsulfoxide) for measuring the baseline and next into the Myc-Max complex alone or in presence of the tested inhibitors to study the association of the complex to the DNA.
Direct Binding and disruption of protein-DNA interaction. To study the direct effect of our hit compounds VPC-70063 and VPC-70067 on the interaction between Myc-Max heterodimer and the DNA, we used Bio-Layer Interferometry (BLI, ForteBio™). This technique is a label-free technology allowing the measurement of direct interactions between two partners, one immobilized on a sensor and the other one present in a solution. We applied this technology to study the disruption of the interaction between a biotinylated E-box oligo immobilized on a streptavidin biosensor and a purified Myc-Max complex in presence of our compounds. Therefore, histidine-tagged Max (residues 23-102) and GST tagged Myc (residues 368-454) were overexpressed and co-purified. The fraction containing equal amount of Myc and Max was collected and used for the binding assay (FIG. 3B). The presence of both proteins was validated by Western blot using a specific antibody of each protein. […] Additionally, we tested the ability of our best compound VPC-70063 to disrupt the interaction of MYC/MAX with DNA in a dose dependent manner.
(In general: Biolayer interferometry detects binding as a change in optical thickness at a sensor tip.)

Where [5] appears, read: LNCaP, 25 μM, TABLE 3, read-out: % Inhibition 25 μM.
[6] abbreviates: LNCaP, 24 h, 25 μM, LNCaP cells, TABLE 1, read-out: Myc-Max transcriptional activity % inhibition (25 μM).
[7] abbreviates: LNCaP, TABLE 2, assay not named, values match Myc-Max transcriptional activity, read-out: IC50.

For the molecule `CCc1ccc(/C=C2\SC(=S)NC2=O)cc1` [Compound 10058-F4, [Z,E]-5-[4-ethylbenzylidine]-2-thioxothiazolidin-4-one, reference compound], in test [1], the inhibition (commonly the change of the read-out against control, counted positive when it falls) at 25 µM is 70%. Further, in the test on LNCaP cells [2], the IC50 was 18.3 µM.
Take `NC(=O)c1ccsc1NC(=O)Nc1cccc(C(F)(F)F)c1` [VPC-70021]: the inhibition at 25 µM in test [3] (setting [5]) stood at 95%; in test [3] (setting [6]) it was 95%; in test [1], 73%. Also, the IC50 in test [3] (setting [7]) came to 10 µM; in test [3] (LNCaP cells, dose response, Cignal c-Myc kit, read-out: IC50 Myc-Max transcriptional activity), 8.5 µM. In addition, in the test with HO15.19 cells, the inhibition at 12 µM was 0%. In the test on LNCaP cells [4], the PARP effect result was “nil”. For the same molecule, the BLI binding result on Myc-Max complex is recorded as “average”.
Regarding `CC(=O)Nc1ccc(Nc2cc(Cl)c(C(F)(F)F)cc2[N+](=O)[O-])cc1` [VPC-70033], the values for the inhibition at 25 µM in test [3] (setting [5]), in test [3] (setting [6]) and in test [1] were 81%, 81% and 51%, respectively. Also, the IC50 in test [3] (setting [7]) is 10 µM. The PARP effect entry in the test on LNCaP cells [4] is recorded as “nil”. Moreover, on Myc-Max complex, the BLI binding entry is “weak”.
On to `S=C(NCc1ccc(Cl)c(Cl)c1)Nc1cccnc1` [VPC-70053], for which the inhibition at 25 µM in test [3] (setting [5]) came to 73%; in test [3] (setting [6]) it was 73%; in test [1] it was 50%. In addition, the IC50 in test [3] (setting [7]) was 11 µM.
For `CN1C(=O)/C(=C\C=C\c2ccco2)SC1=S` [VPC-70064], the inhibition at 25 µM in test [3] (LNCaP, 25 μM, TABLE 4, read-out: % Inhibition (25 μM)) was 78%; in test [3] (setting [6]), 78%; in test [1], 64%.
With `CC(C)(C)[C@H]1CCc2sc(C(=O)N3CCC(C(N)=O)CC3)cc2C1` [VPC-70068], the inhibition at 25 µM was 73% in test [3] (setting [5]), 73% in test [3] (setting [6]) and 58% in test [1]. In addition, the PARP effect result with LNCaP cells [4] is listed as “average”.
`S=C(NCc1ccncc1)Nc1cc(Cl)cc(Cl)c1` [VPC-70084]: the inhibition at 25 µM in test [3] (setting [5]) is 80%. For the same molecule, in test [3] (setting [7]), the IC50 stood at 20 µM. Also, the PARP effect entry with LNCaP cells [4] is “weak”.
In the case of `O=C(NNc1ccc(C(F)(F)F)cc1[N+](=O)[O-])c1cnccn1` [VPC-70127], the inhibition at 25 µM in test [3] (LNCaP, 25 μM, TABLE 6, read-out: % Inhibition 25 μM) worked out at 106%. Further, the IC50 in test [3] (setting [7]) worked out at 1 µM. In addition, in the test on HO15.19 cells, the inhibition at 12 µM came out at 19%. In the test with LNCaP cells [4], the PARP effect result is on record as “strong”. The BLI binding entry at Myc-Max complex was “weak”.
Turning to `O=C(NCc1cnn(Cc2ccccc2)c1)[C@@H]1COc2ccccc2O1` [VPC-70215], in test [3] (setting [5]), the inhibition at 25 µM stood at 101%. In test [3] (setting [7]), the IC50 amounted to 20 µM. Moreover, in the test with HO15.19 cells, the inhibition at 12 µM was determined as 29%. Also, the PARP effect result with LNCaP cells [4] was “weak”.
As to `O=C(CCc1c[nH]c2ccccc12)Nc1nc2ccccc2[nH]1` [VPC-70223], the inhibition at 25 µM in test [3] (setting [5]) is 103%. Besides, in test [3] (setting [7]), the IC50 was determined as 10 µM. In addition, the inhibition at 12 µM in the test with HO15.19 cells came to 40%.
In turn, `CC(C)C[C@H](NC(=O)C(Cc1ccccc1)NC(=O)CNC(=O)[C@H](C)NC(=O)[C@@H](N)Cc1ccc(O)cc1)C(=O)OCc1ccccc1` (some centres unmarked) [VPC-70413] displayed an IC50 in test [3] (LNCaP) of 15 µM. In addition, the inhibition at 25 µM in test [3] (LNCaP, read-out: % Inhibition 25 μM) was determined as 114%. Besides, in the test on LNCaP cells [4], the PARP effect result is given as “weak”. Besides, the BLI binding result on Myc-Max complex is on record as “weak”.
With `S=C(NCc1ccccc1)Nc1cccc(COc2ccccc2)c1` [VPC-70526], in test [3] (LNCaP, TABLE 3), the inhibition at 5 µM is 41% and the inhibition at 10 µM worked out at 62%. Moreover, in test [3] (setting [5]), the inhibition at 25 µM came to 94%.
In the case of `O=C(NCCc1ccccc1)C(=O)Nc1cc(C(F)(F)F)cc(C(F)(F)F)c1` [VPC-70527], in test [3] (LNCaP, TABLE 3), the inhibition at 5 µM came out at 38% and the inhibition at 10 µM is 43%. In test [3] (setting [5]), the inhibition at 25 µM was determined as 92%.
The corresponding values for `CC(C)(C)CNC(=S)Nc1cccc(C(F)(F)F)c1` [VPC-70529] are 14%, 52% and 94%.
In the case of `Cc1c(Cl)cc(NC(=S)NCc2ccccc2)cc1Cl` [VPC-70530], the inhibition at 12.5 µM in test [3] (LNCaP, TABLE 3) worked out at 94%.
With `NC(=O)NCc1ccc(NC(=S)NCc2ccccc2)cc1` [VPC-70531], in test [3] (LNCaP, TABLE 3), the inhibition at 5 µM stood at 0%, the inhibition at 10 µM turned out to be 27% and the inhibition at 12.5 µM turned out to be 47%. Besides, in test [3] (setting [5]), the inhibition at 25 µM was determined as 81%.
Turning to `Fc1ccc(NC(=S)NCc2ccccc2)cc1C(F)(F)F` [VPC-70532], in test [3] (LNCaP, TABLE 3), the inhibition at 12.5 µM was 101%.
In the case of `FC(F)(F)c1cccc(NC(=S)NCc2ccccc2C(F)(F)F)c1` [VPC-70535], the inhibition at 12.5 µM in test [3] (LNCaP, TABLE 3) is 95%.
Still for that read-out and setting: the same measure for `O=C(NCCNS(=O)(=O)c1ccccc1)NNC(=O)c1cccc(C(F)(F)F)c1` [VPC-70549]: 75%.
For `N#Cc1ccc(NNC(=O)c2ccc(C(F)(F)F)cc2)c(C(F)(F)F)c1` [VPC-70551], the inhibition at 10 µM in test [3] (LNCaP, TABLE 6) came to 91%. In test [3] (LNCaP, TABLE 6 footnote, assay not named, read-out: IC50), the IC50 was 4 µM.
Consider `O=C(CCNC(=O)c1cccc(C(F)(F)F)c1)NCc1ccccc1` [VPC-70554], for which the inhibition at 12.5 µM in test [3] (LNCaP, TABLE 3) was determined as 71%.
The same measure, in the same setting: the same measure for `CC(C)(O)c1ccc(CNC(=S)NCc2cccc(C(F)(F)F)c2)cc1` [VPC-70561]: 95%.
Still for that read-out and setting: the figure for `Cc1cc(NC(=S)NCc2ccon2)cc(C(F)(F)F)c1` [VPC-70564] is 73%.
